According to patent US20160289186A1, “FLUOROMETHYL-SUBSTITUTED PYRROLE CA[…]” (Grunenthal GmbH, priority 2013, published 2016):

Biological target: T1, Human CaV2.2 channels (Homo sapiens, UniProt Q00975)
T1 construct: expressed in transfected cells; host or cells: HEK293
Experiment: Fluorescent (FLIPR) assay for CaV2.2 channels using potassium depolarization to induce channel opening
Format: cell-based
Conditions: 3 μM compound; 30 mM KCl assay buffer (inactivated channel state); HEK293 cells stably expressing human CaV2.2; read-out: Activity Category: %-Inhib (CaV2.2) @3 μM @30 mM KCl
In short: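 HEK293 cells stably co-expressing human CaV2.2 with α2δ and β subunits plus Kir2.3, Fluo-4 loaded; compounds preincubated 15 min at 25 °C in 1 mM or 30 mM KCl buffer (inactivated state), pH 7.4. Depolarized by KCl addition; baseline-normalized peak fluorescence (ex 480/em 535 nm) gave inhibition.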

T1 sequence (Q00975 whole entry): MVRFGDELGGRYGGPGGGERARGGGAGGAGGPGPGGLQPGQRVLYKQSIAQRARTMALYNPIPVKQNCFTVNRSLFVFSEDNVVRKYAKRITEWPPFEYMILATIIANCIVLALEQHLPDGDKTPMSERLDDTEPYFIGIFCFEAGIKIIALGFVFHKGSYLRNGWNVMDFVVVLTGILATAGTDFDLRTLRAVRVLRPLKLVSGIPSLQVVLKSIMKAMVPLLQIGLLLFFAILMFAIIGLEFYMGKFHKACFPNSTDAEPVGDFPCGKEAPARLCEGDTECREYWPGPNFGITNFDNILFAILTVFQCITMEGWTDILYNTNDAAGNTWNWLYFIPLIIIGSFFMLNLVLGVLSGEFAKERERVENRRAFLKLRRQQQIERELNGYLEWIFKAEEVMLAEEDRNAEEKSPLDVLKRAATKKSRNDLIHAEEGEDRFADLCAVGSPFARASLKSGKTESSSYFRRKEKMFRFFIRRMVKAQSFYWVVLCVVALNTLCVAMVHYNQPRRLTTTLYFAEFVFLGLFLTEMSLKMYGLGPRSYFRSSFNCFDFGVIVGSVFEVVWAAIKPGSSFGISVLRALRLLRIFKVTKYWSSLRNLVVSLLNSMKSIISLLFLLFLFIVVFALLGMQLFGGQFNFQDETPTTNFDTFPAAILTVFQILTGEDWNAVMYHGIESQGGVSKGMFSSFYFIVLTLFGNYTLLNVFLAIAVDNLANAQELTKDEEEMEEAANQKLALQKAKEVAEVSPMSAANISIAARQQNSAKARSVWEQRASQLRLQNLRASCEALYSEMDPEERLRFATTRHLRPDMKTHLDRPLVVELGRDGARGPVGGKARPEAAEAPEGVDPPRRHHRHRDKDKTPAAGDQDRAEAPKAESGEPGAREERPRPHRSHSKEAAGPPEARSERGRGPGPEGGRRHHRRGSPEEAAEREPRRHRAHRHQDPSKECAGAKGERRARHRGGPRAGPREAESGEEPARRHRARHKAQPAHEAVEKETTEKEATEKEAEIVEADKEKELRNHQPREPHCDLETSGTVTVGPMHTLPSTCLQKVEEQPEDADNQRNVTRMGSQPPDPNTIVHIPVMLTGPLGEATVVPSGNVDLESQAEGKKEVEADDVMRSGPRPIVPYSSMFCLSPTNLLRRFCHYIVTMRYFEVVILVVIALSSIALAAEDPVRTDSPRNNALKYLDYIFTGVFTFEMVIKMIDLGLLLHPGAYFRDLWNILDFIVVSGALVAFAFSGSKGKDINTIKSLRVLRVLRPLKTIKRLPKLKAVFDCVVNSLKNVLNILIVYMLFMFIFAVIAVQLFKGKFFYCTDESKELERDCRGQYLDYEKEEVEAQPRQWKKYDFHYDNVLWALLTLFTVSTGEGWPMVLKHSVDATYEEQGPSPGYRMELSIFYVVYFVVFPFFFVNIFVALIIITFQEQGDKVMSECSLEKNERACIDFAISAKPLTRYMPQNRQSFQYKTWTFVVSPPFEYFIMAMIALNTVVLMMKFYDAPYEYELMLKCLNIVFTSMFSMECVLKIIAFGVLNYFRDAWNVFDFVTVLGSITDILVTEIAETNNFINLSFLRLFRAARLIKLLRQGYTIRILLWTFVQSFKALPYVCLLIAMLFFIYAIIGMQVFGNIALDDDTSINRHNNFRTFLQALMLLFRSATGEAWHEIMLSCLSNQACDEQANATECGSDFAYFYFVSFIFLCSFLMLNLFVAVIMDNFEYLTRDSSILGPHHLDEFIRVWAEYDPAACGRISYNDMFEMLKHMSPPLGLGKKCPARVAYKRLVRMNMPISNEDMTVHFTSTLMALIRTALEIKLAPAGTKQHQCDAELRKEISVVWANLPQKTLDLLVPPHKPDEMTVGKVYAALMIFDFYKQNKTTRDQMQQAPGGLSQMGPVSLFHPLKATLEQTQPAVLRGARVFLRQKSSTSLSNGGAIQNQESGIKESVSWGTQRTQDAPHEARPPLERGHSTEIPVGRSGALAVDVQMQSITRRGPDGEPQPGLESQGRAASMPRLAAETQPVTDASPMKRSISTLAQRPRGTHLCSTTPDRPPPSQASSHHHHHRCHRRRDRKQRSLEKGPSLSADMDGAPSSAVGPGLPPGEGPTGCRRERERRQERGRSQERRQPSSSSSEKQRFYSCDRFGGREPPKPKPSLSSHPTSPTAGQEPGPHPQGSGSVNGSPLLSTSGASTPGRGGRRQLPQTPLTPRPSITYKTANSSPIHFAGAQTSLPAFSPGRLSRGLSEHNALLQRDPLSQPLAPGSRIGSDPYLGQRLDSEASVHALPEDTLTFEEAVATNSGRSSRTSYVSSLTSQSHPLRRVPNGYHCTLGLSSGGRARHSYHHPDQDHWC
T1 sequence (P54284 whole entry, further chain): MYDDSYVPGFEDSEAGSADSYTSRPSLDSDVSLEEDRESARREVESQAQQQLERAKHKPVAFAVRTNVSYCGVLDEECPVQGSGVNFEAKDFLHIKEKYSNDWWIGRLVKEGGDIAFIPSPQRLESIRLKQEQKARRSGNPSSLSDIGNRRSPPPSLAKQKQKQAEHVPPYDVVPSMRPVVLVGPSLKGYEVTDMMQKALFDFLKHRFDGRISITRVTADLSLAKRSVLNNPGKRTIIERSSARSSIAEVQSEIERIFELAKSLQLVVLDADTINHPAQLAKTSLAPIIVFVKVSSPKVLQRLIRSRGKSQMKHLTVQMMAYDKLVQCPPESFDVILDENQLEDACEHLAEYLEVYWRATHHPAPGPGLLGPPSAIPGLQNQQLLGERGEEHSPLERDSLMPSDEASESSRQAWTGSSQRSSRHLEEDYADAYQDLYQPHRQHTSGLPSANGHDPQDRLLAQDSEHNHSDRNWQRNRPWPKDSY
T1 sequence (P54289 25-1103, further chain): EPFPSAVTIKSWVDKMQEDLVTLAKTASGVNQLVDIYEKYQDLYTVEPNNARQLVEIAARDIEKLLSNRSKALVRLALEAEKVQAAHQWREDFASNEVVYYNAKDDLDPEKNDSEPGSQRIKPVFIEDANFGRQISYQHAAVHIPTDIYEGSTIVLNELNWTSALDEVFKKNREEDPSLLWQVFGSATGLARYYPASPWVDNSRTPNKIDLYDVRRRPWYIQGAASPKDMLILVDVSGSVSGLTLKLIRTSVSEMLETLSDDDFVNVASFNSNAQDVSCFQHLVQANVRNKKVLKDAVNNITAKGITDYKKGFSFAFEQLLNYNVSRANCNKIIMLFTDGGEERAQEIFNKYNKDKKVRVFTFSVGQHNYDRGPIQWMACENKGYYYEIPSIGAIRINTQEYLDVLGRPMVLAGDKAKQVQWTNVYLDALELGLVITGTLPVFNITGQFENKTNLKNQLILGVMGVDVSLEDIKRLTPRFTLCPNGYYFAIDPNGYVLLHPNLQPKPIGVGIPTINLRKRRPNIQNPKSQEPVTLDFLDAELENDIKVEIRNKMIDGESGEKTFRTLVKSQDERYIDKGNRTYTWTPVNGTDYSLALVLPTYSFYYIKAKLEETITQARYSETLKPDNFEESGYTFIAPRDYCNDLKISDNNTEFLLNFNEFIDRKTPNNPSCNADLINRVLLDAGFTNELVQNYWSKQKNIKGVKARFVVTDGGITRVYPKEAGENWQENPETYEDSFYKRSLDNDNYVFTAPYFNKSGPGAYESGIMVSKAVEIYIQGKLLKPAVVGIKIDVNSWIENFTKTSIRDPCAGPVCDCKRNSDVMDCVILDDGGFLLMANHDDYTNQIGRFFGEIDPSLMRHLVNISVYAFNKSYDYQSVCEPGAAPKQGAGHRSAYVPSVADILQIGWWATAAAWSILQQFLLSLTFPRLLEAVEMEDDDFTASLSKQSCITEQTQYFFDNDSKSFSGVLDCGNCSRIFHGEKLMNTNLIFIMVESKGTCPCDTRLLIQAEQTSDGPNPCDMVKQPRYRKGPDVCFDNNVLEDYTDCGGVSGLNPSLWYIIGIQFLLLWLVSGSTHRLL

Question: With `CN(CC(C)(C)CO)C(=O)c1c(-c2ccc(F)cc2)cc(C(F)(F)F)n1CC1CCCO1` (stereo not drawn) [Example 074, 3-(4-Fluorophenyl)-N-(3-hydroxy-2,2-dimethyl-propyl)-N-methyl-1-(tetrahydro-furan-2-yl-methyl)-5-(trifluoromethyl)-1H-pyrrole-2-carboxylic acid amide] as the compound, how does the inhibition at 3 µM read?
Answer: 75 to 95%

Question: `Cc1cc(CN(C)C(=O)c2c(-c3ccc(F)cc3)cc(C(F)(F)F)n2CC2CCCO2)no1` (stereo not drawn) [Example 075, 3-(4-Fluorophenyl)-N-methyl-N-[(5-methyl-isoxazol-3-yl)-methyl]-1-(tetrahydro-furan-2-yl-methyl)-5-(trifluoromethyl)-1H-pyrrole-2-carboxylic acid amide] was tested. Which inhibition at 3 µM did it give?
Answer: 75 to 95%

Question: How did the inhibition at 3 µM turn out when `Cc1cnc(CN(C)C(=O)c2c(-c3ccc(F)cc3)cc(C(F)(F)F)n2CC2CCCO2)cn1` (stereo not drawn) [Example 077, 3-(4-Fluorophenyl)-N-methyl-N-[(5-methyl-pyrazin-2-yl)-methyl]-1-(tetrahydro-furan-2-yl-methyl)-5-(trifluoromethyl)-1H-pyrrole-2-carboxylic acid amide] was run?
Answer: 75 to 95%

Question: For `CN(CCS(C)(=O)=O)C(=O)c1c(-c2ccc(F)cc2)cc(C(F)(F)F)n1CC1CCCO1` (stereo not drawn) [Example 078, 3-(4-Fluorophenyl)-N-methyl-N-(2-methylsulfonyl-ethyl)-1-(tetrahydro-furan-2-yl-methyl)-5-(trifluoromethyl)-1H-pyrrole-2-carboxylic acid amide], which inhibition at 3 µM is on record?
Answer: 40 to 75%

Question: `O=C1CN(C(=O)c2c(-c3ccc(F)cc3)cc(C(F)(F)F)n2CC2CCCO2)CCN1` (stereo not drawn) [Example 079, 4-[3-(4-Fluorophenyl)-1-(tetrahydro-furan-2-yl-methyl)-5-(trifluoromethyl)-1H-pyrrole-2-carbonyl]-piperazin-2-one] was tested. Which inhibition at 3 µM did it give?
Answer: 40 to 75%

Question: For `CC1(C)CN(C(=O)c2c(-c3ccc(F)cc3)cc(C(F)(F)F)n2CC2CCCO2)CCO1` (stereo not drawn) [Example 080, (2,2-Dimethyl-morpholin-4-yl)-[3-(4-fluorophenyl)-1-(tetrahydro-furan-2-yl-methyl)-5-(trifluoromethyl)-1H-pyrrol-2-yl]-methanone], which inhibition at 3 µM is on record?
Answer: 75 to 95%

Question: With `O=C(c1c(-c2ccc(F)cc2)cc(C(F)(F)F)n1CC1CCCO1)N1CCOCC1` (stereo not drawn) [Example 081, [3-(4-Fluorophenyl)-1-(tetrahydro-furan-2-yl-methyl)-5-(trifluoromethyl)-1H-pyrrol-2-yl]-morpholin-4-yl-methanone] as the compound, how does the inhibition at 3 µM read?
Answer: 40 to 75%

Question: Which inhibition at 3 µM does the source give for `O=C(NC1CC1)c1c(-c2ccc(F)cc2)cc(C(F)(F)F)n1CC1CCCO1` (stereo not drawn) [Example 082, N-Cyclopropyl-3-(4-fluorophenyl)-1-(tetrahydro-furan-2-yl-methyl)-5-(trifluoromethyl)-1H-pyrrole-2-carboxylic acid amide] here?
Answer: 40 to 75%

Question: `CN(CC(C)(C)C)C(=O)c1c(-c2ccc(Cl)cc2)cc(C(F)(F)F)n1CC1CCCO1` (stereo not drawn) [Example 083, 3-(4-Chlorophenyl)-N-(2,2-dimethyl-propyl)-N-methyl-1-(tetrahydro-furan-2-yl-methyl)-5-(trifluoromethyl)-1H-pyrrole-2-carboxylic acid amide] was tested. Which inhibition at 3 µM did it give?
Answer: 75 to 95%

Question: With `Cc1c(-c2ccc(Cl)cc2)c(C(=O)N2CCOC(C)(C)C2)n(CC2CC2)c1C(F)(F)F` [Example 084, [3-(4-Chlorophenyl)-1-(cyclopropyl-methyl)-4-methyl-5-(trifluoromethyl)-1H-pyrrol-2-yl]-(2,2-dimethyl-morpholin-4-yl)-methanone] as the compound, how does the inhibition at 3 µM read?
Answer: > 95%

Question: For `Cc1c(-c2ccc(Cl)cc2)c(C(=O)N2CCOC(C)(C)C2)n(CC2CCC2)c1C(F)(F)F` [Example 085, [3-(4-Chlorophenyl)-1-(cyclobutyl-methyl)-4-methyl-5-(trifluoromethyl)-1H-pyrrol-2-yl]-(2,2-dimethyl-morpholin-4-yl)-methanone], which inhibition at 3 µM is on record?
Answer: 75 to 95%

Question: With `Cc1c(-c2ccc(Cl)cc2)c(C(=O)N2CCOCC2)n(CC#CC2CC2)c1C(F)(F)F` [Example 086, [3-(4-Chlorophenyl)-1-(3-cyclopropyl-prop-2-ynyl)-4-methyl-5-(trifluoromethyl)-1H-pyrrol-2-yl]-morpholin-4-yl-methanone] as the compound, how does the inhibition at 3 µM read?
Answer: > 95%
